Source: patent US7476666B2, “HIV integrase inhibitors” (Merck & Co., Inc., priority 2004, dated 2009)

Columns and labels:
[1] = test system: acute HIV infection with HeLa P4-2 cells; assay: Single cycle infectivity assay with HeLa P4-2 cells (vertical assay); assay type: cell-based; conditions: Human immunodeficiency virus 1, HeLaP4-2
Experimental: An assay for measuring the inhibition of acute HIV infection with HeLa P4-2 cells in a single cycle infectivity assay (alternatively referred to herein as the “vertical assay”) was conducted in accordance with Joyce, J. G. et al., J. Biol. Chem. 2002, 277: 45811, Hazuda, D. J. et al., Science, 2000, 287, 646, and Kimpton, J. et al, J. Virol. 1992, 66: 2232.

[2] = test system: acute HIV infection of T-lymphoid cells; assay: Inhibition of acute HIV infection of T-lymphoid cells (spread assay); assay type: cell-based; conditions: Human immunodeficiency virus 1
Experimental: An assay for the inhibition of acute HIV infection of T-lymphoid cells (alternatively referred to herein as the “spread assay”) was conducted in accordance with Vacca, J. P. et al., Proc. Natl. Acad. Sci. USA 1994, 91: 4096.

[3] = biological target: T1, recombinant integrase (HIV integrase) (Human immunodeficiency virus type 1 group M subtype B, UniProt P04585); assay: HIV integrase assay: strand transfer catalyzed by recombinant integrase; assay type: biochemical; conditions: assay per WO 02/30930, read-out: IC50, inhibition of strand transfer activity of integrase
T1 construct: Strand Transfer Catalyzed by Recombinant Integrase
Experimental: Assays for the strand transfer activity of integrase were conducted in accordance with WO 02/30930 for recombinant integrase.
Further description on conducting the assay using preassembled complexes is found in Wolfe, A. L. et al., J. Virol. 1996, 70: 1424-1432, Hazuda et al., J. Virol. 1997, 71: 7005-7011; Hazuda et al., Drug Design and Discovery 1997, 15: 17-24; and Hazuda et al., Science 2000, 287: 646-650.

Row | SMILES | IC50 [1] | IC95 [2] | IC50 [3]
1 | O=C(c1nn2c(c1O)C(=O)N(Cc1ccc(F)cc1)CC2)N1CCOCC1 [Example 28, 5-(4-Fluorobenzyl)-3-hydroxy-2-(morpholin-4-ylcarbonyl)-4-oxo-4,5,6,7-tetrahydropyrazolo[1,5-a]pyrazine] | < 40 µM | > 10 µM | –
2 | CN(C)CCN(Cc1ccccc1)C(=O)c1nn2c(c1O)C(=O)N(C)CC2 [Example 19, 2-{Benzyl[2-(dimethylamino)ethyl]aminocarbonyl}-3-hydroxy-5-methyl-4-oxo-4,5,6,7-tetrahydropyrazolo[1,5-a]pyrazine] | > 100 µM | > 10 µM | > 10 µM
3 | CN(Cc1ccc2nccnc2c1)C(=O)c1nn2c(c1O)C(=O)N(C)CC2 [Example 17, 3-Hydroxy-5-methyl-4-oxo-2-{[quinoxalin-6-ylmethyl(methyl)amino]carbonyl}-4,5,6,7-tetrahydropyrazolo[1,5-a]pyrazine] | < 40 µM | > 10 µM | –
4 | COC(=O)c1nn2c(c1O)C(=O)N(Cc1ccc(F)cc1)CC2 [Example 1, Methyl 5-(4-fluorobenzyl)-3-hydroxy-4-oxo-4,5,6,7-tetrahydropyrazolo[1,5-a]pyrazine-2-carboxylate] | > 100 µM | > 10 µM | –
5 | CN1CCn2nc(C(=O)N3CCc4ccccc4C3)c(O)c2C1=O [Example 14, 3-Hydroxy-5-methyl-4-oxo-2-[(1,2,3,4-tetrahydro-isoquinolin-2-yl)carbonyl]-4,5,6,7-tetrahydropyrazolo[1,5-a]pyrazine] | – | > 10 µM | > 10 µM
6 | CN1CCn2nc(C(=O)N3CCCC3c3ccccc3)c(O)c2C1=O (stereo not shown) [Example 16, 3-Hydroxy-5-methyl-4-oxo-2-[(2-phenylpyrrolidin-1-yl)carbonyl]-4,5,6,7-tetrahydropyrazolo[1,5-a]pyrazine] | – | > 10 µM | > 10 µM
7 | CN1CC(CN2CCCCC2)n2nc(C(=O)NCc3ccc(F)cc3)c(O)c2C1=O (stereo not shown) [Example 9, N-(4-fluorobenzyl)-3-hydroxy-5-methyl-4-oxo-7-(piperidin-1-ylmethyl)-4,5,6,7-tetrahydropyrazolo[1,5-a]pyrazine-2-carboxamide] | – | ≤ 10 µM | –
8 | CN(C)C(=O)c1cc(F)ccc1CNC(=O)c1nn2c(c1O)C(=O)N(C)C[C@@H]2c1ccccc1 [Example 38, (7S)-N-{2-[(Dimethylamino)carbonyl]-4-fluorobenzyl}-3-hydroxy-5-methyl-4-oxo-7-phenyl-4,5,6,7-tetrahydropyrazolo[1,5-a]pyrazine-2-carboxamide] | – | ≤ 10 µM | –
9 | CN1CCn2nc(C(=O)N(CCO)Cc3ccccc3)c(O)c2C1=O [Example 18, 2-[Benzyl(2-hydroxyethyl)aminocarbonyl]-3-hydroxy-5-methyl-4-oxo-4,5,6,7-tetrahydropyrazolo[1,5-a]pyrazine] | > 100 µM | > 10 µM | –
10 | CNC(=O)c1nn2c(c1O)C(=O)N(Cc1ccc(F)cc1)CC2c1ccccc1 (stereo not shown) [Example 4, 5-(4-Fluorobenzyl)-3-hydroxy-N-methyl-4-oxo-7-phenyl-4,5,6,7-tetrahydropyrazolo[1,5-a]pyrazine-2-carboxamide] | – | ≤ 10 µM | –
11 | O=C(NC1CCNCC1)c1nn2c(c1O)C(=O)N(Cc1ccc(F)cc1)CC2 [Example 25, 5-(4-Fluorobenzyl)-3-hydroxy-4-oxo-N-(4-piperidinyl)-4,5,6,7-tetrahydropyrazolo[1,5-a]pyrazine-2-carboxamide] | < 40 µM | > 10 µM | –
12 | CC1Cn2nc(C(=O)NCc3ccc(F)cc3)c(O)c2C(=O)N1C (stereo not shown) [Example 5, 5,6-Dimethyl-N-(4-fluorobenzyl)-3-hydroxy-4-oxo-4,5,6,7-tetrahydropyrazolo[1,5-a]pyrazine-2-carboxamide] | – | ≤ 10 µM | –
13 | CN1CC(c2cccc(C#N)c2)n2nc(C(=O)NCc3ccc(F)cc3)c(O)c2C1=O (stereo not shown) [Example 44, 7-(3-Cyanophenyl)-N-(4-fluorobenzyl)-3-hydroxy-5-methyl-4-oxo-4,5,6,7-tetrahydropyrazolo[5,5-a]pyrazine-2-carboxamide] | – | ≤ 10 µM | –
14 | CN1CCn2nc(C(=O)NCc3ccc(F)cc3S(C)(=O)=O)c(O)c2C1=O [Example 15, N-[4-Fluoro-2-(methylsulfonyl)benzyl]-3-hydroxy-5-methyl-4-oxo-4,5,6,7-tetrahydropyrazolo[1,5-a]pyrazine-2-carboxamide] | – | ≤ 10 µM | –
15 | CCCCNC(=O)c1nn2c(c1O)C(=O)N(Cc1ccc(F)cc1)CC2 [Example 24, N-Butyl-5-(4-fluorobenzyl)-3-hydroxy-4-oxo-4,5,6,7-tetrahydropyrazolo[1,5-a]pyrazine-2-carboxamide] | – | ≤ 10 µM | –
16 | Cc1nc(C2CN(C)C(=O)c3c(O)c(C(=O)NCc4ccc(F)cc4)nn32)cs1 (stereo not shown) [Example 12, N-(4-Fluorobenzyl)-3-hydroxy-5-methyl-(2-methyl-1,3-thiazol-4-yl)-4-oxo-4,5,6,7-tetrahydropyrazolo[1,5-a]pyrazine-2-carboxamide] | – | ≤ 10 µM | –
17 | CN1CC(c2cccc(Br)c2)n2nc(C(=O)NCc3ccc(F)cc3)c(O)c2C1=O (stereo not shown) [Example 43, 7-(3-Bromophenyl)-N-(4-fluorobenzyl)-3-hydroxy-5-methyl-4-oxo-4,5,6,7-tetrahydropyrazolo[1,5-a]pyrazine-2-carboxamide] | – | ≤ 10 µM | –
18 | CN1CC(C(=O)N2CCCCC2)n2nc(C(=O)NCc3ccc(F)cc3)c(O)c2C1=O (stereo not shown) [Example 7, N-(4-Fluorobenzyl)-3-hydroxy-5-methyl-4-oxo-7-(piperidin-1-ylcarbonyl)-4,5,6,7-tetrahydropyrazolo[1,5-a]pyrazine-2-carboxamide] | – | ≤ 10 µM | –
19 | CN1C[C@@H](c2ccccc2)n2nc(C(=O)NCc3ccc(F)cc3C(=O)NC3CC3)c(O)c2C1=O [Example 35, (7R)-N-{2-[(Cyclopropylamino)carbonyl]-4-fluorobenzyl}-3-hydroxy-5-methyl-4-oxo-7-phenyl-4,5,6,7-tetrahydropyrazolo[1,5-a]pyrazine-2-carboxamide] | – | ≤ 10 µM | –
20 | CNC(=O)c1cc(F)ccc1CNC(=O)c1nn2c(c1O)C(=O)N(C)C[C@H]2c1ccccc1 [Example 34, (7R)-N-{4-Fluoro-2-[(methylamino)carbonyl]benzyl}-3-hydroxy-5-methyl-4-oxo-7-phenyl-4,5,6,7-tetrahydropyrazolo[1,5-a]pyrazine-2-carboxamide] | – | ≤ 10 µM | –
21 | O=C(NCc1ccc(Cl)c(Cl)c1)c1nn2c(c1O)C(=O)N(CC1CC1)CC2 [Example 21, 5-Cyclopropylmethyl-N-(3,4-dichlorobenzyl)-3-hydroxy-4-oxo-4,5,6,7-tetrahydropyrazolo[1,5-a]pyrazine-2-carboxamide] | – | ≤ 10 µM | –
22 | CNC(=O)c1nn2c(c1O)C(=O)N(Cc1ccc(F)cc1)C(C)C2 (stereo not shown) [Example 6, 5-(4-Fluorobenzyl)-3-hydroxy-N-methyl-6-methyl-4-oxo-4,5,6,7-tetrahydropyrazolo[1,5-a]pyrazine-2-carboxamide] | < 40 µM | > 10 µM | –
23 | CNC(=O)c1cc(F)ccc1CNC(=O)c1nn2c(c1O)C(=O)N(C)CC2c1ccccc1 (stereo not shown) [Example 3, N-(4-Fluoro-2-[(methylamino)carbonyl]benzyl)-3-hydroxy-5-methyl-4-oxo-7-phenyl-4,5,6,7-tetrahydropyrazolo[1,5-a]pyrazine-2-carboxamide] | – | ≤ 10 µM | –
24 | Cc1csc(C2CN(C)C(=O)c3c(O)c(C(=O)NCc4ccc(F)cc4)nn32)n1 (stereo not shown) [Example 11, N-(4-Fluorobenzyl)-3-hydroxy-5-methyl-7-(4-methyl-1,3-thiazol-2-yl)-4-oxo-4,5,6,7-tetrahydropyrazolo[1,5-a]pyrazine-2-carboxamide] | – | ≤ 10 µM | –
